# Source: publication PMC8468039, “Development of New Meridianin/Leucettine-Derived Hybrid Small Molecules as Nanomolar Multi-Kinase Inhibitors with Antitumor Activity” (Biomedicines, 2021)
# Like-named read-outs stand apart in the source and are kept apart here.
# Experiments:
# T-47D = assay: NCI growth inhibition (SRB) assay; format: cell-based; conditions: Homo sapiens, T47D, Breast Cancer, single dose 10 µM, 48 h, read-out: Percent Growth Inhibition (GI)
# Experimental: (§1) The antitumor assay was performed according to the protocol of the Drug Evaluation Branch, NCI, Bethesda. A 48 h drug exposure protocol was adopted, and sulforhodamine B (SRB) assay was utilized to assess the cell growth and viability, as reported earlier.
# (§2) The inhibition results of tumor cell growth by the newly synthesized compounds (5a–5g) are described in Table 4. The reported measurements have been performed at the NIH National Cancer Institute, USA by a standardized assay including a panel of 60 different tumor cell lines (Supplementary Data). The following cancer cell types were included in these assays: Leukemia, non-small cell lung cancer, colon cancer, CNS cancer, melanoma, ovarian cancer, renal cancer, prostate, and breast cancer. […] Additionally, the 3,4-dimethoxy substituted compound (5b) also suffered poor activity against the cancer cell lines.
# SNB-75 = assay: NCI growth inhibition (SRB) assay; format: cell-based; conditions: Homo sapiens, SNB-75, CNS Cancer, single dose 10 µM, 48 h, read-out: Percent Growth Inhibition (GI)
# Experimental: as §1, §2
# ACHN = assay: NCI growth inhibition (SRB) assay; format: cell-based; conditions: Homo sapiens, Renal Cancer, single dose 10 µM, 48 h, read-out: Percent Growth Inhibition (GI)
# Experimental: as §1, §2
# CAKI-1 = assay: NCI growth inhibition (SRB) assay; format: cell-based; conditions: Homo sapiens, CAKI-1, Renal Cancer, single dose 10 µM, 48 h, read-out: Percent Growth Inhibition (GI)
# Experimental: as §1, §2
# HS 578T = assay: NCI growth inhibition (SRB) assay; format: cell-based; conditions: Homo sapiens, Breast Cancer, single dose 10 µM, 48 h, read-out: Percent Growth Inhibition (GI)
# Experimental: as §1, §2
# HL-60(TB) = assay: NCI growth inhibition (SRB) assay; format: cell-based; conditions: Homo sapiens, Leukemia, single dose 10 µM, 48 h, read-out: Percent Growth Inhibition (GI)
# Experimental: as §1, §2
# UO-31 = assay: NCI growth inhibition (SRB) assay; format: cell-based; conditions: Homo sapiens, UO-31, Renal Cancer, single dose 10 µM, 48 h, read-out: Percent Growth Inhibition (GI)
# Experimental: as §1, §2
# SF-539 = assay: NCI growth inhibition (SRB) assay; format: cell-based; conditions: Homo sapiens, SF-539, CNS Cancer, single dose 10 µM, 48 h, read-out: Percent Growth Inhibition (GI)
# Experimental: as §1, §2
# HCT-15 = assay: NCI growth inhibition (SRB) assay; format: cell-based; conditions: Homo sapiens, HCT-15, Colon Cancer, single dose 10 µM, 48 h, read-out: Percent Growth Inhibition (GI)
# Experimental: as §1, §2
# SR = assay: NCI growth inhibition (SRB) assay; format: cell-based
# Experimental: as §1, §2
# RPMI-8226 = assay: NCI growth inhibition (SRB) assay; format: cell-based; conditions: Homo sapiens, RPMI-8226, Leukemia, single dose 10 µM, 48 h, read-out: Percent Growth Inhibition (GI)
# Experimental: as §1, §2
# HOP-92 = assay: NCI growth inhibition (SRB) assay; format: cell-based; conditions: Homo sapiens, HOP-92, Non-Small Cell Lung Cancer, single dose 10 µM, 48 h, read-out: Percent Growth Inhibition (GI)
# Experimental: as §1, §2
# [1] = system: panel of 60 different tumor cell lines; assay: NCI antitumor assay, panel of 60 tumor cell lines; format: cell-based; conditions: single dose 10 µM, result in words
# Experimental: as §1, §2
# c-MER = molecular target: T1, c-MER (Homo sapiens, UniProt Q12866); assay: In vitro kinase inhibition assay (HotSpot, Reaction Biology); format: biochemical; conditions: single dose of 10 µM; 10 µM ATP as printed; read-out: Percent Inhibition, c-MER
# T1 construct: purchased Reaction Biology Corp
# T1 sequence (Q12866 21-999): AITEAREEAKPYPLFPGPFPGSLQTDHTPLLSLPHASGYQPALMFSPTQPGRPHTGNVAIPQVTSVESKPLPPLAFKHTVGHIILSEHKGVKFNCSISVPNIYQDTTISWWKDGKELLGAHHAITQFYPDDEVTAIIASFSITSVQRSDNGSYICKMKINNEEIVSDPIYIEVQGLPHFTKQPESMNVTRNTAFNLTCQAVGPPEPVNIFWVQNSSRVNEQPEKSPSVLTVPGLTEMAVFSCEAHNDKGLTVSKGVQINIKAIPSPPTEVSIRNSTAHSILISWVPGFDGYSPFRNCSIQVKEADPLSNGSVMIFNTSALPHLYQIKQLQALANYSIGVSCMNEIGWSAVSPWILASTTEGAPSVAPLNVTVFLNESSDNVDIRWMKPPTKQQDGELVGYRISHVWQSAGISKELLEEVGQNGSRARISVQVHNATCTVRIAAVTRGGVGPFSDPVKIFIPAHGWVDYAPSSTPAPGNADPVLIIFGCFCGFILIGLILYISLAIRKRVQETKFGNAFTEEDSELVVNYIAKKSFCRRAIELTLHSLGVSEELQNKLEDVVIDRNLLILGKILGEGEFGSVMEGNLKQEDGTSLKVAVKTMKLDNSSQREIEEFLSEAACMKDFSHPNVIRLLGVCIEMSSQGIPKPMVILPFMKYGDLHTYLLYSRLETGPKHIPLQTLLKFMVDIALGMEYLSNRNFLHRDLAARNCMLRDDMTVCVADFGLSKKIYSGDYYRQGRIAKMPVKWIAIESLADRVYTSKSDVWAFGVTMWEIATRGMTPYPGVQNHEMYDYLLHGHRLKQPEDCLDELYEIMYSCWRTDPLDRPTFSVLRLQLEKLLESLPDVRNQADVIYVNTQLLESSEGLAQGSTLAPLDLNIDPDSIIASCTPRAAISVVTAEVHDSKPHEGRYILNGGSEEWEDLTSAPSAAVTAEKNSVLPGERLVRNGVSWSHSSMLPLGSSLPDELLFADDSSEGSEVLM
# Experimental: (§3) The in vitro kinase inhibition assay was carried out by Reaction Biology Corp. (Reaction Biology Corp., Chester, PA, USA) Kinase HotSpot^SM service (http://www.reactionbiology.com, accessed on 15 January 2021), following the previously reported methods. (For details, see Supplementary Material).
# (§4) As mentioned in the introduction, to get insights about the kinase inhibition profile of the hybrid small molecule 5a, an in vitro screening over a panel of 14 cancer-related kinases was carried out. Accordingly, 10 µM concentrations of compound 5a were used in a kinase inhibition assay over various kinase groups and families in the presence of 10 µM ATP using HotSpotSM technology. To get a comprehensive picture of the inhibitory activities of the tested compound (5a) against the kinase panel, data are illustrated in Table 1. […] Compound 5a was also able to suppress the kinase activity of the epidermal growth factor receptor (EGFR), platelet-derived growth factor receptor-alpha (PDGFRα), and cyclin-dependent kinase 2 (CDK2) with modest inhibition values of 26.99 ± 0.9, 24.0 ± 0.4, and 20.1 ± 0.1%, respectively. […] Several studies have confirmed direct relationships between the most affected kinases (FMS, LCK, LYN, and DAPK1) and different human disorders including cancer.
# (§5) 5. Protocol of Kinase assay
# (§6) Kinases inhibitory activities were assessed by the HotSpot assay platform, which contained specific kinase/substrate pairs along with required cofactors. Base reaction buffer: 20 mM Hepes (pH 7.5), 10 mM MgCl2, 1 mM EGTA, 0.02% Brij35, 0.02 mg/ml BSA, 0.1 mM Na3VO4, 2 mM DTT, 1% DMSO. Testing compounds were dissolved in 100% DMSO to specific concentration. The serial dilution was conducted by Integra Viaflo Assist in DMSO. The reaction mixture containing the examined compound and 33P-ATP was incubated at room temperature for 2h and radioactivity was detected by filter-binding method. Kinase activity data were expressed as the percent remaining kinase activity in test samples compared to vehicle (dimethyl sulfoxide) reactions. IC50 values and curve fits were obtained using Prism (GraphPad Software).
# (§7) 6. Biology raw data for IC50 determination
# (§8) Paper ID Cpd ID NSC Number
# PAK1 = molecular target: T2, PAK1 (Homo sapiens, UniProt Q13153); assay: as above; format: biochemical; conditions: single dose of 10 µM; read-out: Percent Inhibition, PAK1
# T2 construct: purchased Reaction Biology Corp
# T2 sequence (Q13153 whole entry): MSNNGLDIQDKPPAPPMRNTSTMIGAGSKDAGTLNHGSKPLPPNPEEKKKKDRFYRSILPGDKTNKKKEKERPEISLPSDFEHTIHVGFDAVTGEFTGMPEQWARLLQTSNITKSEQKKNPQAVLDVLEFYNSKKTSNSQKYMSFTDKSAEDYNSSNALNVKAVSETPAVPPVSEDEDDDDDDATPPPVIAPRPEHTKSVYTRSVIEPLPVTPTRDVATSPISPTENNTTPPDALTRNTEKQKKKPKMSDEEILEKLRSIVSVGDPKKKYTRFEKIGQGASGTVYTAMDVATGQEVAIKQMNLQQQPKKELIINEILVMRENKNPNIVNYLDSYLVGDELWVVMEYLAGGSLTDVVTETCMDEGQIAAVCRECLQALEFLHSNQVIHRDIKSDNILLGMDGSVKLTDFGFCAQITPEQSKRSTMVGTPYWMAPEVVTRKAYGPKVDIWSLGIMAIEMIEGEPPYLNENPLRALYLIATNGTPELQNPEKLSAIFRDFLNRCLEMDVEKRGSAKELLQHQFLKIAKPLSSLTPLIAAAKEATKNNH
# Experimental: as §3, §4, §5, §6, §7, §8
# JAK3 = molecular target: T3, JAK3 (Homo sapiens, UniProt P52333); assay: as above; format: biochemical; conditions: single dose of 10 µM; read-out: Percent Inhibition, JAK3
# T3 construct: purchased Reaction Biology Corp
# T3 sequence (P52333 whole entry): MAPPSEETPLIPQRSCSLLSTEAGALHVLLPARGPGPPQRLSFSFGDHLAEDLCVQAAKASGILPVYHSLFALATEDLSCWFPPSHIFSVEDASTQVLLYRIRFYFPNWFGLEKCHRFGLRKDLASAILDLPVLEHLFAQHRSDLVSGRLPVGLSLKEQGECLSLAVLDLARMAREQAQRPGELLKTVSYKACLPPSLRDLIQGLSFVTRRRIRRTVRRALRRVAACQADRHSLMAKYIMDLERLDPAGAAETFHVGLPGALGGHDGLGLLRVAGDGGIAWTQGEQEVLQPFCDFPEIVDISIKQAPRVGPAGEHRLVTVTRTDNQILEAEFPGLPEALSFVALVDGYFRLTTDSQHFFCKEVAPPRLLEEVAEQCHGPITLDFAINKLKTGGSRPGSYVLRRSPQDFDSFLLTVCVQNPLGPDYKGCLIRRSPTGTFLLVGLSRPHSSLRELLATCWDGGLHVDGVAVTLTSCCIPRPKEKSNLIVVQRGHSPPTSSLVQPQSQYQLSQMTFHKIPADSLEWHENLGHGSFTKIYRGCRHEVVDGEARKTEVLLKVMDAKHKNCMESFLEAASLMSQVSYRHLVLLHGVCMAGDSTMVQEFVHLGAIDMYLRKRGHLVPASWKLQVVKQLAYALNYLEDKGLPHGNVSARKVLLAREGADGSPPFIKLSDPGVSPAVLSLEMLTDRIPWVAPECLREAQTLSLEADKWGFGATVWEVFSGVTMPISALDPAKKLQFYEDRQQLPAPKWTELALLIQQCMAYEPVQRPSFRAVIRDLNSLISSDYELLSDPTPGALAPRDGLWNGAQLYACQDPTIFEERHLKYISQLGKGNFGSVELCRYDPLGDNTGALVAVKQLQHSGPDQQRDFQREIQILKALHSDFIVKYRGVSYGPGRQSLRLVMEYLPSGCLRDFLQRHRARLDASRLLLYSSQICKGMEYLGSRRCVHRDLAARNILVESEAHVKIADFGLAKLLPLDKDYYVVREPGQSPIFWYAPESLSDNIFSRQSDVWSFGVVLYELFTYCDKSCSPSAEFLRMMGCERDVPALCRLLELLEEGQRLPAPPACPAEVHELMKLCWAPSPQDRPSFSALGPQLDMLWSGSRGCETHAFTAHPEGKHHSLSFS
# Experimental: as §3, §4, §5, §6, §7, §8
# BRAF = molecular target: T4, BRAF (Homo sapiens, UniProt P15056); assay: as above; format: biochemical; conditions: single dose of 10 µM; 10 µM ATP as printed; read-out: Percent Inhibition, BRAF
# T4 construct: purchased Reaction Biology Corp
# T4 sequence (P15056 whole entry): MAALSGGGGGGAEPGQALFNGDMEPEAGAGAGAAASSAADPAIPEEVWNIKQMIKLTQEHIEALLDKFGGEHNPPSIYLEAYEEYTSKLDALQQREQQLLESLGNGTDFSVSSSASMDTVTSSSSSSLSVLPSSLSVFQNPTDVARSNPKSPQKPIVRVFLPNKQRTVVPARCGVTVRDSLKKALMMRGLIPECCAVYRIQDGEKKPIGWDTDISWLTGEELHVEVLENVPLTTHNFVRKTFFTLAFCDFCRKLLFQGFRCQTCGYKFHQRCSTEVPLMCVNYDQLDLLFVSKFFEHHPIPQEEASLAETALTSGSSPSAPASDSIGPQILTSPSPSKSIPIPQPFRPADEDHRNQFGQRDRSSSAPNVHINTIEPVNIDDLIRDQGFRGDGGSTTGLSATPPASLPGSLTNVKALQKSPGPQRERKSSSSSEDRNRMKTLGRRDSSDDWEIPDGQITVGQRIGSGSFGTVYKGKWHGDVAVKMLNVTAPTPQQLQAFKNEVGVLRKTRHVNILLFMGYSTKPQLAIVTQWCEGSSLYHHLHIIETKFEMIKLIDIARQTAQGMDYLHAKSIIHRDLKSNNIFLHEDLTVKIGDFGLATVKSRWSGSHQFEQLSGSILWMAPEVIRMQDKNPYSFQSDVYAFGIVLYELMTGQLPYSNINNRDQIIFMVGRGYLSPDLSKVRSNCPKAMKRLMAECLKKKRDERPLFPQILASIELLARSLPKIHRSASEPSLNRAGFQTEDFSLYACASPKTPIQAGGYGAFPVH
# Experimental: as §3, §4, §5, §6, §7, §8
# CDK2/cyclin A = molecular target: T5, CDK2/cyclin A (Homo sapiens, UniProt P24941); assay: as above; format: biochemical; conditions: single dose of 10 µM; 10 µM ATP as printed; read-out: Percent Inhibition, CDK2/cyclin A
# T5 construct: purchased Reaction Biology Corp
# Experimental: as §3, §4, §5, §6, §7, §8
# FLT1/VEGFR1 = molecular target: T6, FLT1/VEGFR1 (Homo sapiens, UniProt P17948); assay: as above; format: biochemical; conditions: single dose of 10 µM; 10 µM ATP as printed; read-out: Percent Inhibition, FLT1/VEGFR1
# T6 construct: purchased Reaction Biology Corp
# T6 sequence (P17948 27-1338): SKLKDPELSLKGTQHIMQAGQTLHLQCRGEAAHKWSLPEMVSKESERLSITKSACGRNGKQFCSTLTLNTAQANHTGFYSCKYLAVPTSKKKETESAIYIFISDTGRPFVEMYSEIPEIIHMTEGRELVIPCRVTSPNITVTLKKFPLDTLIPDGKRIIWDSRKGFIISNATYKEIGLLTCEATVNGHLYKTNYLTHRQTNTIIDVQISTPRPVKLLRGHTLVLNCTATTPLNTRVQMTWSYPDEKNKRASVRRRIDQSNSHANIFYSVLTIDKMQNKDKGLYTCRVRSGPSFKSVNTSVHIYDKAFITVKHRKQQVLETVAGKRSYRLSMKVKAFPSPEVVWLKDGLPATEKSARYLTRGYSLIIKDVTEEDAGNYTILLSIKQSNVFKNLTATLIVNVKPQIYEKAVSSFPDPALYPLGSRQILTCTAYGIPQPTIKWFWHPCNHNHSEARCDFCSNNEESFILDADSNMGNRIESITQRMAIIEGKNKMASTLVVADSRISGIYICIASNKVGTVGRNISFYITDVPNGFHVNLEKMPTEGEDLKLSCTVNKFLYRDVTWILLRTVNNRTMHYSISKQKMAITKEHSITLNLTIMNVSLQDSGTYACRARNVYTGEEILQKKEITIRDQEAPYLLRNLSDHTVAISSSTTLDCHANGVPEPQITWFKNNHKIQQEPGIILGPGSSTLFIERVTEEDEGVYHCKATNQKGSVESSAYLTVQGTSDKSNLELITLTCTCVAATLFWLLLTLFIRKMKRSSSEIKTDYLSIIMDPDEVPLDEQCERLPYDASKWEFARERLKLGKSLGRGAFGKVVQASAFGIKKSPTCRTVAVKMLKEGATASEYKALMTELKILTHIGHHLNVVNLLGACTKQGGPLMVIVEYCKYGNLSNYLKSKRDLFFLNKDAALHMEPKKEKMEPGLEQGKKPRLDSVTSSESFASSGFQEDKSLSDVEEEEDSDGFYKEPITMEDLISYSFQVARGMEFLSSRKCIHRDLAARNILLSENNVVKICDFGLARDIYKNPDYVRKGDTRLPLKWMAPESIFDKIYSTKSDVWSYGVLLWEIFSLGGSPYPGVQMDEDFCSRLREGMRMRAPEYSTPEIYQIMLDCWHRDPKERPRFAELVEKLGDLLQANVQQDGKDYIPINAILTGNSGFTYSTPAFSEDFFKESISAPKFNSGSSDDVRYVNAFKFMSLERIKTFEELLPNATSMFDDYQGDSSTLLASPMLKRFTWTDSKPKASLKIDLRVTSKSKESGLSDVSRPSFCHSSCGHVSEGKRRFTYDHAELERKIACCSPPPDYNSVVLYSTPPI
# Experimental: as §3, §4, §5, §6, §7, §8
# [2] = Homo sapiens, Leukemia, single dose 10 µM, 48 h, read-out: Percent Growth Inhibition (GI)
Compound,inhibition at 10 µM (T-47D),inhibition at 10 µM (SNB-75),inhibition at 10 µM (ACHN),inhibition at 10 µM (CAKI-1),inhibition at 10 µM (HS 578T),inhibition at 10 µM (HL-60(TB)),inhibition at 10 µM (UO-31),inhibition at 10 µM (SF-539),inhibition at 10 µM (HCT-15),inhibition at 10 µM (SR; [2]),inhibition at 10 µM (RPMI-8226),inhibition at 10 µM (HOP-92),inhibitory effects on the different cancer cell lines [1],melting point,also measured
"COc1ccc(Oc2nc(Nc3ccc(N4CCOCC4)cc3)ncc2NC(=O)Cc2cc(OC)cc(OC)c2)cc1 [5e, 2-(3,5-Dimethoxyphenyl)-N-(4-(4-methoxyphenoxy)-2-((4-morpholinophenyl)amino)pyrimidin-5-yl)acetamide]",10.2%,-3.1%,-0.26%,-2.58%,1.64%,-6.34%,19.4%,2.09%,1.13%,13.2%,11.3%,4.46%,moderate to poor,152.7 to 153.7 °C,
"COc1ccc(Oc2nc(Nc3ccc(N4CCOCC4)cc3)ncc2NC(=O)c2ccnc([N+](=O)[O-])c2)cc1 [5f, N-(4-(4-Methoxyphenoxy)-2-((4-morpholinophenyl)amino)pyrimidin-5-yl)-2-nitroisonicotinamide]",5.93%,-4.97%,1.61%,13.7%,6.7%,-3.19%,29%,7.72%,32.8%,27.4%,16.3%,1.12%,moderate to poor,170 to 171 °C,
"COc1ccc(Oc2nc(Nc3ccc(N4CCOCC4)cc3)ncc2NC(=O)c2ccc(OC)c(OC)c2)cc1 [5b, 3,4-Dimethoxy-N-(4-(4-methoxyphenoxy)-2-((4-morpholinophenyl)amino)pyrimidin-5-yl)benzamide]",2.41%,-4.29%,-7.28%,20.6%,5.09%,16.4%,33.6%,-3.17%,12.3%,18.8%,11.1%,-1.19%,moderate to poor,119.1 to 120.1 °C,
"COc1ccc(Oc2nc(Nc3ccc(N4CCOCC4)cc3)ncc2NC(=O)c2ccc3c(c2)OCO3)cc1 [5a, N-(4-(4-Methoxyphenoxy)-2-((4-morpholinophenyl)amino)pyrimidin-5-yl)benzo[d][1,3]dioxole-5-carboxamide]",6.78%,-3.98%,8.91%,33.9%,6.26%,16.2%,36.7%,4.73%,26%,37.1%,21.8%,6.16%,,205.9 to 206.9 °C,inhibition at 10 µM (c-MER): 4.4 ± 0.1%; inhibition at 10 µM (PAK1): -29.1 ± 3.4%; inhibition at 10 µM (JAK3): 11.2 ± 1.2%; inhibition at 10 µM (BRAF): 4.1 ± 10.5%; inhibition at 10 µM (CDK2/cyclin A): 20.1 ± 0.1%; inhibition at 10 µM (FLT1/VEGFR1): -2.4 ± 1.7%
"COc1ccc(Oc2nc(Nc3ccc(N4CCOCC4)cc3)ncc2NC(=O)c2cc(OC)c(OC)c(OC)c2)cc1 [5c, 3,4,5-Trimethoxy-N-(4-(4-methoxyphenoxy)-2-((4-morpholinophenyl)amino)pyrimidin-5-yl)benzamide]",0.52%,3.59%,4.83%,28.1%,3.23%,31%,42.3%,7.64%,34.4%,64.4%,18.8%,15.8%,,179.5 to 180.5 °C,
"COc1ccc(Oc2nc(Nc3ccc(N4CCOCC4)cc3)ncc2NC(=O)c2cccc(SC)c2)cc1 [5g, N-(4-(4-Methoxyphenoxy)-2-((4-morpholinophenyl)amino)pyrimidin-5-yl)-3-(methylthio)benzamide]",28.2%,21.5%,21.4%,29.4%,22.7%,13.9%,43.7%,21.1%,31.7%,,20.5%,20.2%,,,"inhibition at 10 µM (SR; Homo sapiens, 48 h, Leukemia, single dose 10 µM, read-out: Percent Growth Inhibition (GI)): 60%; Percent Growth Inhibition (GI) (SR; Leukemia, single dose 10 µM, 48 h): 60.5%"
"CCOc1cc(OCC)cc(C(=O)Nc2cnc(Nc3ccc(N4CCOCC4)cc3)nc2Oc2ccc(OC)cc2)c1 [5d, 3,5-Diethoxy-N-(4-(4-methoxyphenoxy)-2-((4-morpholinophenyl)amino)pyrimidin-5-yl)benzamide]",18.4%,19.2%,20.4%,20.6%,7.96%,22.8%,29.9%,8.01%,13.2%,33.2%,25.6%,3.34%,moderate to poor,,
